Measurements reported in patent US20060252807A1, “Novel ortho-terphenyl inhibitors of p38 kinase and methods of treating inflammatory disorders” (Kalypsys, Inc., priority 2005, published 2006).

Biological target: T1, active p38 alpha enzyme (Upstate Biotechnology) (Homo sapiens, UniProt Q16539)
T1 construct: purchased Upstate Biotechnology
Assay: p38α biochemical assay (ATP turnover, luminescent detection, Cambrex PKlight)
Conditions: p38α biochemical assay, Table 1 Biological Activity
In short: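 Active p38α phosphorylates MapkapK2 whole protein with 1.4 uM final ATP, 2 h at 30C, in Tris/MOPS buffer with MgCl2, CaCl2, EGTA, EDTA, glycerol, β-mercaptoethanol and 1 mg/ml BSA. Compounds pin-delivered from DMSO; total ATP turnover read by luminescence after PKlight addition.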

T1 sequence (Q16539 whole entry): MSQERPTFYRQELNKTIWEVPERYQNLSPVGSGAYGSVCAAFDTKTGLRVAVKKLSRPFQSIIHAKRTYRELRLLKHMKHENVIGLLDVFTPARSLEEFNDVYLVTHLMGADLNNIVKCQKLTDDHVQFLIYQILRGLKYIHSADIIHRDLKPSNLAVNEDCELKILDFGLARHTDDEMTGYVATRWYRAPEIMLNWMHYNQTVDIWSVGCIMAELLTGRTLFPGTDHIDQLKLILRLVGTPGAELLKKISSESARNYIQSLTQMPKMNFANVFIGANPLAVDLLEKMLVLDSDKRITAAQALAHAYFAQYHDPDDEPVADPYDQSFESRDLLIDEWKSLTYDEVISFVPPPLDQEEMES

Compound	IC50 [µM]
CC(C)NC(=O)c1csc(-c2oc(CNC(=O)c3ccccn3)nc2-c2ccc(F)cc2)n1 [Example 114]	> 1
CC(C)NC(=O)c1csc(-c2oc(CN3CCN(C(=O)CCc4cccc(Br)c4)CC3)nc2-c2ccc(F)cc2)n1 [Example 547]	> 1
CC(C)NC(=O)c1csc(-c2c(-c3ccc(F)cc3)noc2CNC(=O)CNC(=O)OC(C)(C)C)n1 [Example 676]	> 1
Cc1[nH]nc(-c2ccc(F)cc2)c1-c1nc(C(=O)NCc2ccncc2)cs1 [Example 77, 2-|3-(4-Fluoro-phenyl)-5-methyl-1H-pyrazol-4-yl|-thiazole-4-carboxylic acid (pyridin-4-ylmethyl)-amide]	≤ 1
CC(C)NC(=O)c1csc(-c2c(-c3ccc(F)cc3)noc2CNC(=O)c2cc(O)ccc2[N+](=O)[O-])n1 [Example 708]	> 1
Cc1ccccc1C(=O)NCc1nc(-c2ccc(F)cc2)c(-c2nc(C(=O)NC(C)C)cs2)o1 [Example 122]	> 1
CC(=O)Nc1cccc(C(=O)NCc2onc(-c3ccc(F)cc3)c2-c2nc(C(=O)NC(C)C)cs2)c1 [Example 686]	> 1
Cc1ccc(C)c(C(=O)NCc2nc(-c3ccc(F)cc3)c(-c3nc(C(=O)NC(C)C)cs3)o2)c1 [Example 137]	> 1
CC(C)NC(=O)c1csc(-c2c(-c3ccc(F)cc3)noc2CNC(=O)c2cc(F)ccc2[N+](=O)[O-])n1 [Example 711]	> 1
CC(C)NC(=O)c1csc(-c2c(-c3ccc(F)cc3)noc2CNC(=O)C(C)NC(=O)OC(C)(C)C)n1 (stereo not drawn) [Example 722]	> 1
CC(C)NC(=O)c1csc(-c2c(-c3ccc(F)cc3)noc2CNC(=O)c2cc(Br)ccc2Cl)n1 [Example 795]	> 1
COc1cccc(O)c1C(=O)NCc1onc(-c2ccc(F)cc2)c1-c1nc(C(=O)NC(C)C)cs1 [Example 661]	> 1
CC(C)NC(=O)c1csc(-c2c(-c3ccc(F)cc3)noc2CNC(=O)/C=C/c2cccc(O)c2)n1 [Example 643]	> 1
CC(C)NC(=O)c1csc(-c2oc(CN3CCN(C(=O)CCc4ccccc4Br)CC3)nc2-c2ccc(F)cc2)n1 [Example 546]	> 1
CC(C)NC(=O)c1csc(-c2oc(CN3CCN(C(=O)C(Cl)(Cl)Cl)CC3)nc2-c2ccc(F)cc2)n1 [Example 402]	≤ 1
CC(C)NC(=O)c1csc(-c2c(-c3ccc(F)cc3)noc2CNC(=O)c2cccc(Oc3ccccc3)c2)n1 [Example 763]	> 1
Cc1ccc(C(=O)N2CCN(Cc3nc(-c4ccc(F)cc4)c(-c4nc(C(=O)NC(C)C)cs4)o3)CC2)cc1C [Example 376]	> 1
CC(C)NC(=O)c1csc(-c2oc(CNC(=O)c3cccc(F)c3F)nc2-c2ccc(F)cc2)n1 [Example 158]	≤ 1
CC(C)NC(=O)c1csc(-c2c(-c3ccc(F)cc3)noc2CNC(=O)C(C)NC(=O)OC(C)(C)C)n1 (stereo not drawn) [Example 723]	> 1
CC(C)NC(=O)c1csc(-c2oc(CNC(=O)/C=C/c3ccccc3)nc2-c2ccc(F)cc2)n1 [Example 131]	≤ 1
CC(C)NC(=O)c1csc(-c2oc(CN3CCN(C(=O)c4cc(O)ccc4[N+](=O)[O-])CC3)nc2-c2ccc(F)cc2)n1 [Example 470]	> 1
Cc1onc(-c2ccc(Cl)cc2)c1-c1ccn(C(=O)NC2Cc3ccccc3C2)n1 [Example 10, 3-|3-(4-Chloro-phenyl)-5-methyl-isoxazol-4-yl|-pyrazole-1-carboxylic acid indan-2-ylamide]	> 1
CC(C)NC(=O)c1csc(-c2oc(CNC(=O)c3ccc(F)cc3F)nc2-c2ccc(F)cc2)n1 [Example 159]	≤ 1
CC(C)NC(=O)c1csc(-c2oc(CNC(=O)Cc3ccc(O)c(Cl)c3)nc2-c2ccc(F)cc2)n1 [Example 240]	≤ 1
CC(C)NC(=O)c1csc(-c2c(-c3ccc(F)cc3)noc2CNC(=O)c2ccc(C#N)cc2)n1 [Example 604]	> 1
CC(C)NC(=O)c1csc(-c2oc(CNC(=O)c3ccccc3Cc3ccccc3)nc2-c2ccc(F)cc2)n1 [Example 287]	> 1

Same assay, conditions: p38α kinase; Table 1 Biological Activity

Compound	IC50 [µM]
CC(C)NC(=O)c1csc(-c2c(-c3ccc(F)cc3)noc2CNCCN)n1 [Example 1389]	> 1
CCN(CC)CCNCc1onc(-c2ccc(F)cc2)c1-c1nc(C(=O)NC(C)C)cs1 [Example 1426]	> 1
Cc1nc(-c2ccc(F)cc2)c(-c2nc(C(=O)NCc3ccc4c(c3)OCO4)cs2)s1 [Example 1796]	≤ 1
COc1ccc(C(=O)N2CCC(c3[nH]nc(-c4ccc(F)cc4)c3-c3nc(C(=O)NC(C)C)cs3)CC2)c(O)c1 [Example 902]	> 1
CC(C)NC(=O)c1csc(-c2c(-c3ccc(F)cc3)n[nH]c2C2CCN(C(=O)c3cccc(Br)n3)CC2)n1 [Example 990]	> 1
CCN(Cc1ccccc1)C(=O)c1csc(-c2sc(C)nc2-c2ccc(F)cc2)n1 [Example 1875]	> 1
CC(C)NC(=O)c1csc(-c2oc(CN3CCN(Cc4ccccc4)CC3)nc2-c2ccc(F)cc2)n1 [Example 1249]	> 1
CC(C)NC(=O)c1csc(-c2oc(CNCCNC(=O)OC(C)(C)C)nc2-c2ccc(F)cc2)n1 [Example 1156]	> 1
CC(C)C(C)NC(=O)c1csc(-c2c(-c3ccc(F)cc3)n[nH]c2C2CCNCC2)n1 (stereo not drawn) [Example 2047]	> 1
Cc1ccc(NCc2onc(-c3ccc(F)cc3)c2-c2nc(C(=O)NC(C)C)cs2)cc1 [Example 1632]	> 1
Cc1ccc(C)c(CNC(=O)c2csc(-c3sc(C)nc3-c3ccc(F)cc3)n2)c1 [Example 1769]	> 1
Cc1nc(-c2ccc(F)cc2)c(-c2nc(C(=O)NCc3ccc(Cl)cc3Cl)cs2)s1 [Example 1821]	≤ 1
CC(C)NC(=O)c1csc(-c2oc(CNCc3ccc(N(C)C)cc3)nc2-c2ccc(F)cc2)n1 [Example 1172]	> 1
CC(C)NC(=O)c1csc(-c2c(-c3ccc(F)cc3)noc2CNCCN2CCCCC2)n1 [Example 1439]	> 1
CCOC(=O)CC(C)NCc1nc(-c2ccc(F)cc2)c(-c2nc(C(=O)NC(C)C)cs2)o1 (stereo not drawn) [Example 1111]	> 1
CC(C)NC(=O)c1csc(-c2oc(CN(C)CC(O)c3ccc(O)cc3)nc2-c2ccc(F)cc2)n1 (stereo not drawn) [Example 1246]	> 1
Cc1nc(-c2ccc(F)cc2)c(-c2nc(C(=O)NC3CC(C)(C)NC(C)(C)C3)cs2)s1 [Example 1805]	> 1
CC(C)NC(=O)c1csc(-c2c(-c3ccc(F)cc3)noc2CN2CCCC3CCCCC32)n1 (stereo not drawn) [Example 1555]	> 1
CC(C)NC(=O)c1csc(-c2oc(CNc3cc(Cl)c(Cl)c(Cl)c3)nc2-c2ccc(F)cc2)n1 [Example 1367]	> 1
Cc1c(Cl)cccc1NCc1nc(-c2ccc(F)cc2)c(-c2nc(C(=O)NC(C)C)cs2)o1 [Example 1344]	> 1
CCCN(C)Cc1onc(-c2ccc(F)cc2)c1-c1nc(C(=O)NC(C)C)cs1 [Example 1514]	≤ 1
CC(C)NC(=O)c1csc(-c2oc(CNCCN3CCOCC3)nc2-c2ccc(F)cc2)n1 [Example 1110]	> 1

Compound	IC50 [µM]
Cc1ccccc1CNC(=O)c1csc(-c2c(-c3ccc(F)cc3)n[nH]c2C2CCNCC2)n1 [Example 2077]	> 1
CC(C)NC(=O)c1csc(-c2oc(CNCCN(C(C)C)C(C)C)nc2-c2ccc(F)cc2)n1 [Example 1138]	> 1
O=C(NCc1ccc(Cl)cc1)c1csc(-c2c(-c3ccc(F)cc3)n[nH]c2C2CCNCC2)n1 [Example 2109]	> 1
CCN(Cc1nc(-c2ccc(F)cc2)c(-c2nc(C(=O)NC(C)C)cs2)o1)C(Cc1ccccc1)c1ccco1 (stereo not drawn) [Example 1291]	> 1
CC(C)NC(=O)c1csc(-c2c(-c3ccc(F)cc3)noc2CNCCc2cccc(Cl)c2)n1 [Example 1480]	> 1
Cc1ccc(CNC(=O)c2csc(-c3c(-c4ccc(F)cc4)n[nH]c3C3CCNCC3)n2)cc1C [Example 2097]	> 1
Cc1nc(-c2ccc(F)cc2)c(-c2nc(C(=O)NCc3ccccc3Cl)cs2)s1 [Example 1786]	≤ 1
Cc1nc(-c2ccc(F)cc2)c(-c2nc(C(=O)Nc3ccccc3C(=O)c3ccccc3)cs2)s1 [Example 2018]	> 1
Cc1nc(-c2ccc(F)cc2)c(-c2nc(C(=O)N(CCO)CCO)cs2)s1 [Example 1855]	> 1
CC(C)NC(=O)c1csc(-c2oc(CNC(C)CCc3ccccc3)nc2-c2ccc(F)cc2)n1 (stereo not drawn) [Example 1140]	> 1
CC(C)NC(=O)c1csc(-c2c(-c3ccc(F)cc3)n[nH]c2C2CCN(C(=O)C(C)O)CC2)n1 (stereo not drawn) [Example 815]	≤ 1
O=C(NCc1cc(F)cc(F)c1)c1csc(-c2c(-c3ccc(F)cc3)n[nH]c2C2CCNCC2)n1 [Example 2113]	> 1
CC(C)NC(=O)c1csc(-c2c(-c3ccc(F)cc3)noc2CN2CCC(N(C)C)C2)n1 (stereo not drawn) [Example 1534]	> 1
CC(C)NC(=O)c1csc(-c2c(-c3ccc(F)cc3)noc2CNCc2ccccn2)n1 [Example 1417]	> 1
CC(C)NC(=O)c1csc(-c2c(-c3ccc(F)cc3)n[nH]c2C2CCN(C(=O)c3ccc(Cl)c(Br)c3)CC2)n1 [Example 1035]	> 1
CC(C)NC(=O)c1csc(-c2c(-c3ccc(F)cc3)n[nH]c2C2CCN(C(=O)CNC(=O)OC(C)(C)C)CC2)n1 [Example 915]	> 1
CN(CCCNC(=O)c1csc(-c2c(-c3ccc(F)cc3)n[nH]c2C2CCNCC2)n1)c1ccccc1 [Example 2136]	> 1
CC(C)NC(=O)c1csc(-c2oc(CNCCN3CCCCC3)nc2-c2ccc(F)cc2)n1 [Example 1108]	> 1
CCN(Cc1nc(-c2ccc(F)cc2)c(-c2nc(C(=O)NC(C)C)cs2)o1)C(C)C [Example 1193]	> 1
COc1cc(Cl)ccc1C(=O)N1CCC(c2[nH]nc(-c3ccc(F)cc3)c2-c2nc(C(=O)NC(C)C)cs2)CC1 [Example 953]	> 1
Cc1ccc(NCc2onc(-c3ccc(F)cc3)c2-c2nc(C(=O)NC(C)C)cs2)cc1F [Example 1651]	> 1
